Consider 9 molecules from patent US20230365568A1, “PLK1 POLO BOX DOMAIN INHIBITORS AND METHOD OF TREATING CANCER” (The United States of America,as represented by the …, priority 2020, published 2023).

A short description of series [1]: Stability in mouse cytosol. The note with it: for half-life: read-out: t1/2 Mouse cytosol. It is filed as in vitro ADME.
The nature of another series: Stability in rat cytosol. It is filed as in vitro ADME. The note with it: for half-life: read-out: t1/2 Rat cytosol.
The nature of series [2]: Stability in mouse liver microsomes. In kind it is in vitro ADME. The note with it: for half-life: read-out: t1/2 Mouse LM. A general note: Liver microsomes are a subcellular fraction often used to study metabolism.
The nature of series [3]: Stability in human liver microsomes. In kind it is in vitro ADME. The note with it: for half-life: read-out: t1/2 Human LM.
Series [4] is described as follows: Stability in rat liver microsomes (Table 10). In kind it is in vitro ADME. The note with it: for half-life: read-out: t1/2 Rat LM.
Series [5] in a line: Stability in human cytosol. In kind it is in vitro ADME. The note with it: for half-life: read-out: t1/2 Human cytosol.
In series [6] the test system is HeLa cells. The experiment in a line: Mitotic arrest and antiproliferation in HeLa cells (DAPI staining, cell counts). It is filed as cell-based. The note with it: 100 μM. On the procedure:
HeLa cells were cultured as recommended by the American Type Culture Collection (ATCC). […] Immunostaining was carried out using anti-Plk1 (Santa Cruz Biotechnology, Santa Cruz, CA), anti-Cep63 (MilliporeSigma), anti-CREST (Antibodies Incorp, Davis, CA), and anti-α-tubulin (Sigma, St. Louis, MO) antibodies.
(§1) To quantify fluorescence signal intensities, images were acquired under the same settings and the images obtained after the maximum-intensity projection of z-stacks were analyzed using the Zeiss ZEN v2.1 software (Carl Zeiss Microscopy, LLC). All the quantifications were performed with randomly chosen fields from at least three independent experiments. All values are given as mean±s. D. P values were calculated by unpaired t test from the mean data of each group in Graph Pad Prism (***P<0.001). The statistical details including the definitions and value of n (e.g., number of experimental replicates, cells, etc.) And standard deviations are provided herein.

Another series addresses PBD of Plk2 (Homo sapiens (Human), UniProt Q9NYY3). The experiment in a line: Fluorescence polarization (FP)-based PBD inhibition assay, Plk2. In kind it is binding. The method, then:
(§2) FP assays were carried out essentially as described previously (Qian, ibid). […] All experiments were performed in triplicate for each sample.
(§3) PBD Fluorescence Polarization (FP) Binding Assays for Plk1 specificity. […] All experiments were performed in triplicate for each sample.
Background: Polarisation of emitted light reports the rotation of a fluorescent probe.

The target in the next series is PBD of Plk3 (Homo sapiens (Human), UniProt Q9H4B4). As to the kind of experiment: Fluorescence polarization (FP)-based PBD inhibition assay, Plk3. It is filed as binding. On the procedure: as §2, §3
A short description of series [7]: Microsomal metabolic stability, rat liver microsomes (RLM). The note with it: rat liver microsomes.
A further series is described as follows: Aqueous solubility. The note with it: for Solub.: aqueous solubility.
The target of another series is PBD of Plk1 (Homo sapiens (Human), UniProt P53350). As to the kind of experiment: Fluorescence polarization (FP)-based PBD inhibition assay, Plk1. In kind it is binding. On the procedure:
as §2, §3

The next series has as its target full-length human Plk1 (Homo sapiens (Human), UniProt P53350). The experiment in a line: ELISA-based Plk1 PBD-binding inhibition assay. The note with it: Plk1 PBD; n = 3 unless noted. On the procedure:
An ELISA-based PBD-binding inhibition assay was performed essentially as described previously. […] The wells were washed once with PBS+0.05% Tween20 (PBST) and incubated with 200 μl of PBS plus 1% BSA (blocking buffer) for 1 h to prevent non-specific binding. HEK293A lysates expressing HA-EGFP-Plk1 were prepared in a TBSN [20 mM Tris-HCl (pH 8.0), 150 mM NaCl, 0.5% NP-40, 5 mM EGTA, 2 mM MgCl2, 1.5 mM EDTA, and protease inhibitor cocktail (Roche)]+20% DMSO buffer (˜20 μg total lysates in 100 μl buffer), mixed with the indicated amount of the competitors (p-T78 peptide and its derivative compounds) for 30 min, provided onto the biotinylated peptide-coated ELISA wells, and then incubated with constant rocking for 1 h at 25° C. Following the incubation, ELISA plates were washed 5 times with PBST. To detect bound HA-EGFP-Plk1, the plates were probed for 2 h with 100 μl/well of anti-HA antibody at a concentration of 0.5 μg/ml in the blocking buffer and then washed 5 times. The plates were further probed for 1 h with 100 μl/well of HRP-conjugated secondary antibody (GE Healthcare) at a 1:1,000 dilution in the blocking buffer. The plates were washed 5 times with PBST and incubated with 100 μl/well of 3,3′,5,5′-tetramethylbenzidine solution (Sigma-Aldrich, St. Louis, MO) as substrate until a desired absorbance was reached. The reactions were stopped by the addition of 100 μl/well of stop solution (Cell Signaling Technology, Danvers, MA). The optical density (O.D.) was measured at 450 nm by using a Perkin-Elmer Enspire Multimode Plate reader (PerkinElmer, Inc., Boston, MA). Data obtained from more than three independent experiments were analyzed by GraphPad (San Diego, CA) Prism software version 7.
ELISA-based PBD-binding Inhibition Assay. […] The reaction products were measured at 450 nm by using a Perkin-Elmer Enspire Multimode Plate reader (PerkinElmer, Inc., Boston, MA). Data obtained from more than three independent experiments were analyzed by GraphPad (San Diego, CA) Prism software version 7.

A short description of series [8]: In vitro stability in mice (mouse liver microsome assay). In kind it is in vitro ADME. The note with it: liver microsomes, pH 7.4, read-out: t1/2 in vitro. The method, then: The reaction was stopped by an aliquot of 200 μL of ice-cold acetonitrile after 60 min. After centrifugation at 14 000×g for 10 min, a 5 μL aliquot of the supernatant was injected into a UHPLC-[…]. […] A trace amount of the subsequent glucuronide of the demethylated metabolite was also seen in the serum, as it could be promptly excreted from the liver to the bile, once generated, and can then undergo enterohepatic circulation through which the demethylated product is reabsorbed to the circulation. This could also serve as an explanation for the increased demethylated metabolite at the last time point.

Series [9] can be described thus: In vivo mouse pharmacokinetics, intraperitoneal. The note with it: mice. The method, then:
The National Cancer Institute Animal Care and Use Committee approved all animal experiments conducted in this study.
In the in vivo mouse pharmacokinetics study, 6-8-week-old male C57BL/6 mice were selected for metabolite profiling. In brief, 200 μL/20 g mice of WA (20 mg/kg dissolved in 5% DMSO and 5% Tween 80-contained saline) was administered intraperitoneally to mice. Control mice were treated with saline containing 5% DMSO and 5% Tween 80 alone. […] Blood samples were collected by retro-orbital bleeding at 4 h postdose. After centrifugation for 10 min at 14 000×g, serum was obtained and prepared by mixing 20 μL serum with 180 μL 50% aqueous acetonitrile. After centrifugation at 14 000×g for 20 min, a 5 μL aliquot of the supernatants was injected into a Waters UPLC-ESI-QTOFMS system (Waters Corporation, Milford, MA).

In series [10] the test system is Plk1 localization to centrosomes and kinetochores in HeLa cells. As to the kind of experiment: Immunostaining of Plk1 localization and spindle morphology in HeLa cells. In kind it is cell-based. The note with it: 100 μM; for inhibition at 100 µM: Homo sapiens. On the procedure:
HeLa cells were cultured as recommended by the American Type Culture Collection (ATCC). Asynchronously growing cells were treated with control DMSO or the indicated concentration of 143. To reveal chromosome morphologies, cells were treated with 4′,6-diamidino-2-phenylindole (DAPI), fixed, and subjected to confocal microscopy. Immunostaining was carried out using anti-Plk1 (Santa Cruz Biotechnology, Santa Cruz, CA), anti-Cep63 (MilliporeSigma), anti-CREST (Antibodies Incorp, Davis, CA), and anti-α-tubulin (Sigma, St. Louis, MO) antibodies. Confocal images were acquired using a Zeiss LSM780 equipped with a plan-apochromat 63× (N.A. 1.4) oil-immersion objective lens, 34-channel GaAsP spectral detector (Carl Zeiss Microscopy, LLC.), and 8-bit, 0.5-μm z-steps.
as §1
To directly examine whether the observed mitotic arrest was the consequence of inhibiting Plk1 PBD function, immunostaining analysis was carried out to determine the ability of intracellular Plk1 to localize to centrosomes and kinetochores, an event that requires PBD-mediated protein-protein interaction (Lee et al., Trends Pharmacol. Sci. 36, 858-877 (2015); and Elia et al., Cell 115, 83-95 (2003)). […] A short treatment time (i.e., 2 h), which was intended to minimize a potential indirect effect of these inhibitors, was sufficient to delocalize greater than 70% of Plk1 signals from centrosomes (marked by anti-Cep63 signals) and 90% of those from kinetochores (marked by anti-CREST signals).

Series [11] deals with HeLa cells. The note with it: cancer cells in vitro; Alverez et al., 2020; cited from earlier work.

Where two headings read alike, the source gives them in different places.

Sequence of full-length human Plk1 (P53350 whole entry): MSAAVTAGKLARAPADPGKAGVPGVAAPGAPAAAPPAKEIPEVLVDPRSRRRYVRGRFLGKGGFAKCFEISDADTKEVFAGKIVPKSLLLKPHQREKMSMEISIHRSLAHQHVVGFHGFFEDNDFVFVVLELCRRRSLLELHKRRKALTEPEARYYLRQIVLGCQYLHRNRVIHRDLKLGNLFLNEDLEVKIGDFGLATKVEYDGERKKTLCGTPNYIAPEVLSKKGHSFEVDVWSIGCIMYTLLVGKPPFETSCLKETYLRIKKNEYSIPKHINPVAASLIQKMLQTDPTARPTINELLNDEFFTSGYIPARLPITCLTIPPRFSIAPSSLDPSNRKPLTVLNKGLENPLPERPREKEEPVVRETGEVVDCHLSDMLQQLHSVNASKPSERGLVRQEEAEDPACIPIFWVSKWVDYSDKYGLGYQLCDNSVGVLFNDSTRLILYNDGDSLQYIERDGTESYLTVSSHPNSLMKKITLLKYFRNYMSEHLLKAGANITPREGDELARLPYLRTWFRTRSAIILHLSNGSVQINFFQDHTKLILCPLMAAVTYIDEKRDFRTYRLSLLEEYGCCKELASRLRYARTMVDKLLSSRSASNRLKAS
Sequence of PBD of Plk1 (P53350 326-603): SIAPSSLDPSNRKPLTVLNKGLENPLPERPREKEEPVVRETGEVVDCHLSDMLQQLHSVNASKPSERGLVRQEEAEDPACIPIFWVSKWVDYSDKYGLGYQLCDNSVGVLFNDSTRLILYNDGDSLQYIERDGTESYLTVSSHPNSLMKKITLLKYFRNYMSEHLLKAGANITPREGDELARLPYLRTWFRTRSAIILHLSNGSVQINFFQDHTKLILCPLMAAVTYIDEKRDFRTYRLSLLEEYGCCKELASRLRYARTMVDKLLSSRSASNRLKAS
Sequence of PBD of Plk2 (Q9NYY3 355-685): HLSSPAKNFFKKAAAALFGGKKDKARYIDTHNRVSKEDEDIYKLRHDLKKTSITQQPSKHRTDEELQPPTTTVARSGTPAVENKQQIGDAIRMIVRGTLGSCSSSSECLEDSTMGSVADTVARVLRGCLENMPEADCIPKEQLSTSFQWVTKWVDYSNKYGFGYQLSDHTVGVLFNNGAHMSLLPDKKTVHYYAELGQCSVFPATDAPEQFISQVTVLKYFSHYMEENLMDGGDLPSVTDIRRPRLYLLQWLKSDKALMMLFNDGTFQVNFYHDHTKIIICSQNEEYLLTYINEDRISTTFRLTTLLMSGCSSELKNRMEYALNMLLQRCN
Sequence of PBD of Plk3 (Q9H4B4 335-646): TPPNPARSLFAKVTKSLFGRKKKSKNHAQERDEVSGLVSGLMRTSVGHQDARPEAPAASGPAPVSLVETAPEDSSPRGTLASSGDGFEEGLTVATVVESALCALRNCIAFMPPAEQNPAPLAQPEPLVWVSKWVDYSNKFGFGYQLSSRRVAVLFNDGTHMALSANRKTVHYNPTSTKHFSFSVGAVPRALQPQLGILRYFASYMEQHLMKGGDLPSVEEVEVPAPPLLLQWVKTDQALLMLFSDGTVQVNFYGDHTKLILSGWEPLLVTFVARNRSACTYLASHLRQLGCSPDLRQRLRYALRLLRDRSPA

Take `CCCn1c(=O)c2cc(F)ccc2n2c(SC)nnc12` [compound 144, 7-fluoro-1-(methylthio)-4-propyl-[1,2,4]triazolo[4,3-a]quinazolin-5(4H)-one]: the half-life in [1] is above 120 min; in the series “Stability in rat cytosol”, above 120 min; in series [2] it was 10.6 min; in series [3] it was 14.4 min; in [4], 26.4 min; in [5], above 120 min. The “induction of mitotic arrest (rounded cells with apoptotic or aberrant chromosome morphologies)” value with HeLa cells [6] is given as “induced mitotic arrest but at a somewhat reduced level”.

With `O=c1c2cc(F)ccc2n2c(=S)[nH]nc2n1CC1CC1` [compound 79], the “PAMPA” value worked out at 46.0 ×10⁻⁶ cm/s. In addition, on PBD of Plk2, the “inhibition of Plk2 PBD, FP assay” value is given as “failed to exhibit any detectable level of inhibition”. For the same molecule, at PBD of Plk3, the “inhibition of Plk3 PBD, FP assay” value was “failed to exhibit any detectable level of inhibition”. Further, the “t1/2 (min, RLM)” value in series [7] was above 30 min. Further, in the series “Aqueous solubility”, the solubility result is “moderate to good solubility” and the “Solub.” value was 16.2 µg/mL.

As to PLHST [6b], the “activity in FP-based assay” value at PBD of Plk1 is “no detectable activity”.

Consider `CCCn1c(=O)c2ccccc2n2c(=S)[nH]nc12` [compound 21, 4-propyl-1-thioxo-2,4-dihydro-[1,2,4]triazolo[4,3-a]quinazolin-5(1H)-one], for which the half-life in series [1] was above 120 min; in “Stability in rat cytosol”, above 120 min; in series [2] it was above 120 min; in series [3], above 120 min; in series [7], above 30 min; in [4], above 120 min. Moreover, in [5], the half-life was above 120 min. For the same molecule, the IC50 – broadly, the concentration at which inhibition is half-maximal – on full-length human Plk1 is 1.03 ± 0.08 µM. The “induction of mitotic arrest (rounded cells with apoptotic or aberrant chromosome morphologies)” value in the series with HeLa cells [6] is recorded as “lacked a detectable level of cellular response”. For the same molecule, in “Aqueous solubility”, the “Solub.” value came out at 21.3 µg/mL.

As for `CCCn1c(=O)c2cccc(F)c2n2c(SC)nnc12` [compound 145, 9-fluoro-1-(methylthio)-4-propyl-[1,2,4]triazolo[4,3-a]quinazolin-5(4H)-one], in series [8], the half-life at 20 µM stood at 21.8 ± 6.03 min.

`CCCn1c(=O)c2cc(F)ccc2n2c(=S)[nH]nc12` [compound 64, 7-fluoro-4-propyl-1-thioxo-2,4-dihydro-[1,2,4]triazolo[4,3-a]quinazolin-5(1H)-one]: the “PAMPA” value in “PAMPA permeability” was determined as 195 ×10⁻⁶ cm/s. Besides, the half-life in series [1] was above 120 min; in the series “Stability in rat cytosol”, above 120 min; in series [2], above 120 min; in series [3], above 120 min; in series [4], 120 min; in series [5] it was above 120 min. Besides, the “t1/2 (min, RLM)” value in [7] is given as above 30 min. For the same molecule, the “induction of mitotic arrest (rounded cells with apoptotic or aberrant chromosome morphologies)” value with HeLa cells [6] is listed as “lacked a detectable level of cellular response”. The “Solub.” value in “Aqueous solubility” was above 28 µg/mL.

Turning to `C[C@H]1C[C@@H]1n1c(=O)c2cc(F)ccc2n2c(=S)[nH]nc12` [compound 80], the “PAMPA” value came to 188 ×10⁻⁶ cm/s. Further, the “t1/2 Mouse cytosol” value in series [1] was above 120 min. Besides, the “t1/2 Rat cytosol” value in the series “Stability in rat cytosol” is on record as above 120 min. Moreover, in [2], the “t1/2 Mouse LM” value turned out to be 105.09 min. Further, the “t1/2 Human LM” value in series [3] was 50.83 min. In addition, the “t1/2 (min, RLM)” value in series [7] is above 30 min. The “t1/2 Rat LM” value in [4] is listed as above 120 min. The “t1/2 Human cytosol” value in series [5] is above 120 min. The “Solub.” value in “Aqueous solubility” amounted to 13.2 µg/mL.

With `CCCn1c(=O)c2ccccc2n2c(SC)nnc12` [compound 143, 1-(methylthio)-4-propyl-[1,2,4]triazolo[4,3-a]quinazolin-5(4H)-one], the half-life in series [9] (male, C57BL/6, mouse, serum, ip, 20 mg/kg, in vivo, intraperitoneal, read-out: t1/2 in vivo) is 28.7 ± 8.3 min; in series [1], above 120 min; in the series “Stability in rat cytosol” it was above 120 min; in series [2], 3.77 min; in series [3], 16.8 min; in [4] it was 9.41 min. In addition, in series [5], the half-life is above 120 min. Also, the metabolites in serum entry in series [9] (≥15 min post-injection) was “both the hydroxylated and demethylated products were detected in the serum”. The IC50 at full-length human Plk1 is above 50 µM. In series [10], the spindle bipolarity entry is reported as “significantly compromised”. The inhibition (usually the share of the control response that was lost under treatment) at 100 µM is around 20% in [10] (read-out: inhibition of Plk1 localization to centrosomes) and around 50% in [10] (read-out: inhibition of Plk1 localization to kinetochores). Also, in series [8], the half-life at 20 µM stood at 11.4 ± 3.49 min.

Regarding `CSc1nnc2n(CCc3ccccc3)c(=O)c3ccccc3n12` [Example 6, 1-(methylthio)-4-phenethyl-[1,2,4]triazolo[4,3-a]quinazolin-5(4H)-one], the “concentration required to induce mitotic arrest and affect proliferation” value in the series on HeLa cells [11] was above 100 µM.
